# Laboratory results reported in patent US6468973B1, “Method in the treatment of schizophrenia” (priority 1998, dated 2002).
# Test system: patient with a severe form of schizophrenia
# Assay: Case study: treatment of a patient with a severe form of schizophrenia with a GnRH-analogue
# Assay type: in vivo, human
# Description: 3. […] The patient had previously been treated with various dopamine receptor antagonists without any major improvement.
# The GnRH-analogue triptorelin is available in a pharmaceutical preparation (Decapeptyl® Depot). In the use of this preparation, an injection is administered containing triptorelin embonate in a dose corresponding to 3.75 mg triptorelin. Injections with this dose are given intramuscularly. They should be repeated every fourth week from the first injection.
# A detailed case study of the treatment of a patient with a severe form of schizophrenia is disclosed in the following, as supporting evidence of the effect of the method.
# They had previously by other psychiatrists been given traditional treatment, for several years, without any major improvement in the symptoms of schizophrenia.
# The situation when the patient came to the clinic was that they had sickness pension since more than twenty years. Their contacts with other persons were highly restraint. […] The clinical diagnosis was that they suffered from a very serious form of schizophrenia. They had no signs of any other mental illness or personality disorder. Thus, it was a clearly defined case of schizophrenia.
# Certain symptoms of androgenic hyperactivity such as a male pattern baldness and frequent sexual delusions were also found at the initial examination.
# An endocrinological investigation was performed, based upon their symptoms of androgenic hyperactivity. This disclosed a low blood concentration of free testosterone. Since the patient had symptoms of androgenic hyperactivity this laboratory finding could, however, not be a symptom of a low androgenic activity. Instead, the interpretation of this laboratory finding was that it was a sign of a compensatory reduction in the synthesis and release of testosterone occurring as a consequence of an increased androgenic activity in the brain.
# During long periods of time the patient had been treated with the drugs which presently are considered to have the best effect against schizophrenia.
# In order to overcome the sexual delusions, treatment with the long-acting GnRH-analogue triptorelin (Decapeptyl® Depot) was given every fourth week as deep intramuscular depot injections with a dose corresponding to 1.75 mg triptorelin in each injection. Initially, they were also treated with flutamid in order to prevent a transient increase in androgenic activity.
# It is obvious that the dramatic improvement of the patient was caused by the treatment with a GnRH-analogue.
# [1] = same patient and regimen, after another three months (five months in total)
smiles,measurement,setting,value
CC(C)C[C@H](NC(=O)[C@@H](Cc1c[nH]c2ccccc12)NC(=O)[C@H](Cc1ccc(O)cc1)NC(=O)[C@H](CO)NC(=O)[C@H](Cc1c[nH]c2ccccc12)NC(=O)[C@H](Cc1c[nH]cn1)NC(=O)[C@@H]1CCC(=O)N1)C(=O)N[C@@H](CCCNC(=N)N)C(=O)N1CCC[C@H]1C(=O)NCC(N)=O [triptorelin],clinical improvement of schizophrenia,"one patient, very severe schizophrenia, after six months of treatment, previously dopamine receptor antagonists without major improvement",dramatically improved
same,patient's condition (schizophrenia symptoms),"person, Decapeptyl Depot i.m. every fourth week, dose corresponding to 1.75 mg triptorelin, initially with flutamid, after two months treatment",began to feel better
same,delusions,[1],markedly reduced
same,hallucinations,[1],all hallucinations had disappeared
same,patient's condition (schizophrenia symptoms),[1],dramatically better
